Legend:
[1] = tested on: SpsB V49L mutant of USA300 Δmcr cro/cI(Q16stop) SAUSA300_0352(K44A); experiment: MIC fold increase, SpsB V49L mutant; type: cell-based, S. aureus
Procedure: (§1) MICs were determined according to the standard protocol from the Clinical and Laboratory Standards Institute ([23]). Briefly, S. aureus bacteria were harvested from regular MHA plates that had been cultured for ~20 h at 37°C. Serial dilutions of compound 103 were incubated with bacteria at approximately 10^6 CFU (CFU)/ml in MHB in round-bottom 96 well plates (Corning, Corning, NY) for 22 h at 37°C. MICs were determined by the lowest concentration of compound 103 showing absence of growth by visual inspection.

[2] = tested on: S. aureus USA300 SpsB-low; experiment: MIC, USA300 SpsB-low; type: cell-based; conditions: result in words
Procedure: as §1
(§2) A strain of USA300 Δmcr overexpressing SpsB (USA300 SpsB-high; GNE0028) was engineered by cloning SpsB under the constitutive sarA promoter into vector pMK4, resulting in SpsB expression that was ~20-fold higher than the wild-type level as determined by Western blotting. A USA300 Δmcr strain that underexpresses SpsB (USA300 SpsB-low; […]) was generated by genomic incorporation of spsB under the isopropyl-β-D-thiogalactopyranoside (IPTG)-sensitive promoter spac; without IPTG, this strain expresses SpsB at ~5% of the wild-type level as determined by Western blotting.

[3] = tested on: SpsB H68Y mutant of USA300 Δmcr cro/cI(Q16stop) SAUSA300_0352(K44A); experiment: MIC fold increase, SpsB H68Y mutant; type: cell-based, S. aureus
Procedure: as §1

[4] = tested on: SpsB Y30N mutant of USA300 Δmcr cro/cI(Q16stop) SAUSA300_0352(K44A); experiment: MIC fold increase, SpsB Y30N mutant; type: cell-based, S. aureus
Procedure: as §1

[5] = tested on: cro/cI(M1V)(pMK4) (GNE0107); experiment: MIC fold increase, GNE0107; type: cell-based, S. aureus
Procedure: as §1

[6] = tested on: cro/cI(−14G→T)(pcro/cI-cro/cI) (GNE0097); experiment: MIC fold increase, GNE0097; type: cell-based, S. aureus
Procedure: as §1

[7] = tested on: cro/cI(−62G→A)(pMK4) (GNE0099); experiment: MIC fold increase, GNE0099; type: cell-based, S. aureus
Procedure: as §1

[8] = tested on: Δmcr cro/cI(Q16stop) Δ(SAUSA300_0351-SAUSA300_0352-SAUSA300_0353) (GNE0220); experiment: MIC fold increase, GNE0220; type: cell-based, S. aureus
Procedure: as §1
(§3) To generate mutations in SAUSA300_0351, _0352, and _0353 genes by homologous recombination, we transformed USA300 Δmcr using targeting constructs created in the vector pIMAY ([24]). To generate mutations in SAUSA300_0351, _0352, and _0353 genes in a cro/cI mutant background, we selected colonies from USA300 Δmcr cultured on plates containing fourfold the MIC of compound 103. Sequencing of PCR products of the cro/cI gene from resistant colonies yielded a clone with a Q16stop codon mutation in cro/cI (strain GNE0173). We further mutated SAUSA300_0351, _0352, and _0353 in this USA300 Δmcr cro/cI (Q16stop) clone to study the contributions of these three genes to cro/cI-mediated resistance.

[9] = tested on: cro/cI(−14G→T)(pMK4) (GNE0096); experiment: MIC fold increase, GNE0096; type: cell-based, S. aureus
Procedure: as §1

[10] = tested on: Δmcr cro/cI(Q16stop) (GNE0173); experiment: MIC fold increase, GNE0173; type: cell-based, S. aureus
Procedure: as §1, §3

[11] = tested on: S. aureus USA300 SpsB-high; experiment: MIC, USA300 SpsB-high; type: cell-based; conditions: result in words
Procedure: as §1, §2

CCCCc1ccc(-c2ccc(C(=O)N[C@@H](CCCCN)C(=O)N(C)[C@@H]3C(=O)N[C@@H](C)C(=O)N[C@H](C(=O)NCC(C)C(=O)O)Cc4ccc(O)c(c4)-c4cc3ccc4O)cc2)cc1 (stereo partly shown) [Compound 103]
MIC of compound 103 (fold increase versus MIC for USA300 WT) [1]: 4 fold
MIC for a strain that underexpresses SpsB [2]: reduced MIC
MIC of compound 103 (fold increase versus MIC for USA300 WT) [3]: 8 fold
MIC of compound 103 (fold increase versus MIC for USA300 WT) [4]: 4 fold
MIC of compound 103 (fold increase versus MIC for USA300 WT) [5]: >32 fold
MIC of compound 103 (fold increase versus MIC for USA300 WT) ([6]; GNE0097): 3.0 fold
resistance phenotype ([6]; GNE0097, plasmid-encoded WT cro/cI, result in words): reversed the resistant phenotype
MIC of compound 103 (fold increase versus MIC for USA300 WT) [7]: >32 fold
MIC of compound 103 (fold increase versus MIC for USA300 WT) ([8]; GNE0220): 2.0 fold
resistance phenotype ([8]; GNE0220, deletion of all 3 ABC transporter genes, result in words): reversed the resistant phenotype
MIC of compound 103 (fold increase versus MIC for USA300 WT) [9]: >32 fold
MIC of compound 103 (fold increase versus MIC for USA300 WT) [10]: >32 fold
MIC for an SpsB-overexpressing strain [11]: increased MIC

— PMC5013292, “A Putative Bacterial ABC Transporter Circumvents the Essentiality of Signal Peptidase” (mBio, 2016)
